From paper PMC5090035, “A Class 1 Histone Deacetylase with Potential as an Antifungal Target” (mBio, 2016)

What was measured:
[1] = biological target: T1, RpdA (TAP-tagged wild-type RpdA) (Aspergillus nidulans, UniProt G5EB64); experiment: HDAC assay, release of [3H]acetate from prelabeled histones; type: biochemical; conditions: read-out: % inhibition at 50 nM
T1 construct: gene ANIA_04493; full-length, C12 motif present; TAP-tagged, expressed under xylPp in A. nidulans, IgG Sepharose, eluted by TEV cleavage (CBP part kept)

[2] = biological target: T1, RpdA (TAP-tagged wild-type RpdA); experiment: as above; type: biochemical; conditions: [3H]acetate-prelabeled chicken reticulocyte histones as substrate; 1 h, 25 C; inhibitor at 50 and 500 nM

T1 sequence (G5EB64 1-687): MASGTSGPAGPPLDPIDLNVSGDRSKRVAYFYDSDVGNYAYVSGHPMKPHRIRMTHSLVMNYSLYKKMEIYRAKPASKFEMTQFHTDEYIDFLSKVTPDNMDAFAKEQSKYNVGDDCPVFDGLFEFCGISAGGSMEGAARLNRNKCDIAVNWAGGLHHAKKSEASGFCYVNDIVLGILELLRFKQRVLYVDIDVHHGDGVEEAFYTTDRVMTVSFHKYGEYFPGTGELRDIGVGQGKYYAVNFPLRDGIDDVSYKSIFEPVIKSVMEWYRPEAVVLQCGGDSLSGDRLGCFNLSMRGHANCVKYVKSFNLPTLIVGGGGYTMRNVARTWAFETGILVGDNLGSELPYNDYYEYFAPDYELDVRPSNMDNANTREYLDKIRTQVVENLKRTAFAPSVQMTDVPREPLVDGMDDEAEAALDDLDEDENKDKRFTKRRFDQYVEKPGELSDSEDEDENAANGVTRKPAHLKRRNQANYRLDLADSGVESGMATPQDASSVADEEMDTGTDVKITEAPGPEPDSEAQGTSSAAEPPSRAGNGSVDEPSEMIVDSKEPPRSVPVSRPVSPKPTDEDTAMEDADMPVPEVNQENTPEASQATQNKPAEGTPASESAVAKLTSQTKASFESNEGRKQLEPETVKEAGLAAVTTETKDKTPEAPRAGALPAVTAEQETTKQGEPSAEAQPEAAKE

| Compound | inhibition at 0.05 µM [1] | % inhibition at 50 and 500 nM [2] |
| --- | --- | --- |
| CC(/C=C/C(=O)NO)=C\[C@@H](C)C(=O)c1ccc(N(C)C)cc1 [trichostatin A] | 70% | – |
| O=C(CCCCCCC(=O)Nc1ccccc1)NO [vorinostat] | – | SAHA showed only weak inhibition of RpdA |
